From ChEMBL document CHEMBL1770110, “Pyrimido[4,5-d]azepines as potent and selective 5-HT2C receptor agonists: design, synthesis, and evaluation of PF-3246799 as a treatment for urinary incontinence” (Bioorg Med Chem Lett, 2011)
Calls of active or inactive are those of the source. No cut-off for these calls is given here.

Key:
[1] = biological target: T1, 5-hydroxytryptamine receptor 2C (Homo sapiens) (UniProt P28335); experiment: Agonist activity at human 5HT2C receptor expressed in CHO-K1 cells assessed as increase of fluorescence based calcium mobilization by FLIPR assay relative to control; type: functional, cell-based
T1 sequence (whole entry): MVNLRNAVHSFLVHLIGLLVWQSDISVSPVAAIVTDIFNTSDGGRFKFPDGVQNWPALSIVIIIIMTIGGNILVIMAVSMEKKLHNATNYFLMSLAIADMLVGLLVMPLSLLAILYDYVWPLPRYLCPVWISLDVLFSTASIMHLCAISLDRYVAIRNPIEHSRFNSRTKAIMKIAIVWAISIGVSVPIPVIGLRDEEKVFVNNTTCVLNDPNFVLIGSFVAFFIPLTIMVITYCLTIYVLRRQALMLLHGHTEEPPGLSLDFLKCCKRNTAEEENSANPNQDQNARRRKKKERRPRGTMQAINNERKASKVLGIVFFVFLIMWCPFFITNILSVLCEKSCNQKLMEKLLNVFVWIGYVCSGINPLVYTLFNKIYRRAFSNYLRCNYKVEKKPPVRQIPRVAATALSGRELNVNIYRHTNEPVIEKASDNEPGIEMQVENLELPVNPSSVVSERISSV

[2] = biological target: T2, 5-hydroxytryptamine receptor 2B (Homo sapiens, UniProt P41595); experiment: Agonist activity at human 5HT2B receptor expressed in CHO-K1 cells assessed as increase of fluorescence based calcium mobilization by FLIPR assay; type: functional, cell-based
[3] = biological target: T2, 5-hydroxytryptamine receptor 2B; experiment: Agonist activity at human 5HT2B receptor expressed in CHO-K1 cells assessed as increase of fluorescence based calcium mobilization by FLIPR assay relative to control; type: functional, cell-based
[4] = biological target: T1, 5-hydroxytryptamine receptor 2C (Homo sapiens); experiment: Agonist activity at human 5HT2C receptor expressed in CHO-K1 cells assessed as increase of fluorescence based calcium mobilization at 10 uM by FLIPR assay relative to control; type: functional, cell-based
[5] = biological target: T2, 5-hydroxytryptamine receptor 2B; experiment: Agonist activity at human 5HT2B receptor expressed in CHO-K1 cells assessed as increase of fluorescence based calcium mobilization at 10 uM by FLIPR assay relative to control; type: functional, cell-based
[6] = Intrinsic clearance in human liver microsomes; type: ADME, Microsome
[7] = Intrinsic clearance in human hepatocytes assessed per 10^6 cells; type: ADME, cell-based, Liver, Hepatocyte
[8] = Intrinsic clearance in rat liver microsomes; type: ADME, Microsome
[9] = Intrinsic clearance in dog liver microsomes; type: ADME, Canis lupus familiaris, Microsome
[10] = Intrinsic clearance in rat hepatocytes assessed per 10^6 cells; type: ADME, cell-based, Liver, Hepatocyte
[11] = Intrinsic clearance in dog hepatocytes assessed per 10^6 cells; type: ADME, cell-based, Canis lupus familiaris, Liver, Hepatocyte
[12] = Elimination half life in CD rat at 1 mg/kg, iv administered as single bolus dose; type: ADME, organism-based; parameters: dose 1 mg/kg, route intravenous; conditions: in vivo, read-out: beta t1/2 (converted)
[13] = Elimination half life in Beagle dog at 0.030 mg/kg, iv administered as single infusion over 1 hr; type: ADME, organism-based, Canis lupus familiaris; parameters: dose 0.03 mg/kg, route intravenous; conditions: in vivo, 0.03 mg/kg, read-out: beta t1/2 (converted)
[14] = Plasma clearance in CD rat at 1 mg/kg, iv administered as single bolus dose; type: ADME, organism-based; parameters: dose 1 mg/kg, route intravenous
[15] = Plasma clearance in Beagle dog at 0.030 mg/kg, iv administered as infusion over 1 hr; type: ADME, organism-based, Canis lupus familiaris; parameters: dose 0.03 mg/kg, route intravenous; conditions: 0.03 mg/kg
[16] = Volume of distribution in CD rat at 1 mg/kg, iv administered as single bolus dose; type: ADME, organism-based; parameters: dose 1 mg/kg, route intravenous; conditions: in vivo
[17] = Volume of distribution in Beagle dog at 0.030 mg/kg, iv administered as infusion over 1 hr; type: ADME, organism-based, Canis lupus familiaris; parameters: dose 0.03 mg/kg, route intravenous; conditions: in vivo, 0.03 mg/kg
[18] = Cmax in CD rat at 2 mg/kg, po administered as single dose; type: ADME, organism-based; parameters: dose 2 mg/kg, route oral; conditions: in vivo
[19] = Tmax in CD rat at 2 mg/kg, po administered as single dose; type: ADME, organism-based; parameters: dose 2 mg/kg, route oral; conditions: in vivo
Rattus norvegicus = experiment: AUC (0 to infinity) in CD rat at 2 mg/kg, po administered as single dose; type: ADME, organism-based, Plasma; parameters: time infinity, dose 2 mg/kg, route oral; conditions: in vivo
[20] = Oral bioavailability in CD rat at 2 mg/kg administered as single dose; type: ADME, organism-based; conditions: in vivo
Canis familiaris = experiment: Increase of peak urethral pressure in iv dosed anesthetized dog stress urinary incontinence model at 20 to 45 nM of free plasma concentration relative to control; type: functional, Canis lupus familiaris, Urethra
[21] = Dissociation constant, pKa of the compound; type: physicochemical
[22] = Drug excretion in CD rat urine at 1 mg/kg, iv administered as single bolus dose; type: ADME, organism-based; parameters: dose 1 mg/kg, route intravenous
[23] = Aqueous solubility of the compound at pH 1.5 to 11.7; type: physicochemical; conditions: buffer
[24] = Chemical stability of compound at pH 1 to 12; type: physicochemical; conditions: buffer
[25] = biological target: T3, 5-hydroxytryptamine receptor 2C (Homo sapiens, UniProt P28335); experiment: Agonist activity at human 5HT2C receptor expressed in CHO-K1 cells assessed as increase of fluorescence based calcium mobilization by FLIPR assay; type: functional, cell-based
T3 sequence (P28335 whole entry): T1 sequence (whole entry)

[26] = biological target: T3, 5-hydroxytryptamine receptor 2C; experiment: Displacement of [3H][…] from human 5HT2C receptor expressed in Swiss mouse 3T3 cells by scintillation proximity assay; type: cell-based, NIH3T3

T2 sequence (P41595 whole entry): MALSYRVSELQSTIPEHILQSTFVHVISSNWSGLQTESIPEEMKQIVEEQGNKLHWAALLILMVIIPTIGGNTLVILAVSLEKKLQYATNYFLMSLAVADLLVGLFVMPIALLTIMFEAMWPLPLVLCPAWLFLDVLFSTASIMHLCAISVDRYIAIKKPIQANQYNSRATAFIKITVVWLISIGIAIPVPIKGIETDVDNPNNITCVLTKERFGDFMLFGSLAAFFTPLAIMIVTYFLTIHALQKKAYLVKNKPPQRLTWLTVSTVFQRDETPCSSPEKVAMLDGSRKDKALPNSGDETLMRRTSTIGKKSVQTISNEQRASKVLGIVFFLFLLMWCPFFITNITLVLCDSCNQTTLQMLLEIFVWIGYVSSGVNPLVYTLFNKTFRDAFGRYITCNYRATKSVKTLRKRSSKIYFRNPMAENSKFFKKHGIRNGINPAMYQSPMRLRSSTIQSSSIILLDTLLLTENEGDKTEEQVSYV

Clc1cccc(Cc2ncc3c(n2)CCNCC3)c1
Emax [1]: 56% | EC50 [2]: 30 nM | Emax [3]: 50%

FC(F)(F)c1ccccc1Cc1ncc2c(n1)CCNCC2
Emax [4]: 15% | Emax [5]: 15%

c1ccc(CCc2ncc3c(n2)CCNC3)cc1
Emax [4]: 50%

Cc1cccc(Cc2ncc3c(n2)CCNCC3)c1
Emax [1]: 84% | EC50 [2]: 410 nM | Emax [3]: 62%

c1ccc(Cc2ncc3c(n2)CCNCC3)cc1
microsomal CLint [6]: < 7 µL/min/mg | hepatocyte CLint [7]: < 5 µL/min/1e6 cells | microsomal CLint [8]: 28 µL/min/mg | microsomal CLint [9]: < 7 µL/min/mg | hepatocyte CLint [10]: 15 µL/min/1e6 cells | hepatocyte CLint [11]: < 5 µL/min/1e6 cells | half-life [12]: 2.8 h | half-life [13]: 3.4 h | clearance [14]: 51 mL/min/kg | clearance [15]: 11.6 mL/min/kg | Vd [16]: 8.9 L/kg | Vd [17]: 3.5 L/kg | Cmax [18]: 49 ng/mL | Tmax [19]: 0.25 h | AUC (Rattus norvegicus): 290 ng·h/mL | bioavailability [20]: 44% | Activity (Canis familiaris): 20% | pKa [21]: 8.5 | dose excreted [22]: 10%

O=C(O)/C=C/C(=O)O.c1ccc(Cc2ncc3c(n2)CCNCC3)cc1
solubility [23]: > 10000 µg/mL | Stability [24]: Stable

c1ccc(CCCc2ncc3c(n2)CCNC3)cc1
EC50 [25]: 1900 nM | Emax [1]: 100%

c1ccc(CCc2ncc3c(n2)CNCC3)cc1
Activity [1]: inactive

Cc1ccccc1Cc1ncc2c(n1)CCNCC2
Emax [1]: 70% | EC50 [2]: 1200 nM | Emax [3]: 56%

Cc1ccc(Cc2ncc3c(n2)CCNCC3)cc1
Emax [1]: 63% | EC50 [2]: 164 nM | Emax [3]: 80%

Fc1ccccc1Cc1ncc2c(n1)CCNCC2
Emax [1]: 65% | EC50 [2]: 220 nM | Emax [3]: 43%

Clc1ccccc1Cc1ncc2c(n1)CCNCC2
Emax [4]: 38% | Ki [26]: 1850 nM | EC50 [2]: 178 nM | Emax [3]: 36%
